From ChEMBL document CHEMBL5331104, “Discovery of BRD4-HDAC Dual Inhibitors with Improved Fungal Selectivity and Potent Synergistic Antifungal Activity against Fluconazole-Resistant Candida albicans” (J Med Chem, 2023)
In brackets after ≈: the same amount, converted by molar mass. Activity calls are given as the source filed them. The rule behind the calls is not given here.

Assays:
Nakaseomyces glabratus = test: Antifungal activity against Candida glabrata 4408 assessed as microbial growth inhibition; format: functional
Candida albicans [1] = test: Synergetic antifungal activity against Candida albicans 0304103 assessed as microbial growth inhibition incubated for 24 hrs in the presence of (S, E)-N-Hydroxy-3-(4-(2-(1-methyl-6-(p-tolyl)-4H-benzo(f)-(1,2,4)triazolo(4,3-a)[1,4]diazepin-4-y)acetamido)phenyl)-acrylamide by checkerboard microdilution method; format: functional
Cryptococcus neoformans [2] = test: Antifungal activity against Cryptococcus neoformans H99 assessed as fungal growth inhibition incubated for 24 hrs by broth dilution method; format: functional
Candida albicans [3] = test: microbe, parasite or virus in culture; format: functional; settings: 0304103
Description: Antifungal activity against Candida albicans 0304103 assessed as microbial growth inhibition

Candida albicans [4] = test: Synergetic antifungal activity against Candida albicans 0304103 assessed as microbial growth inhibition incubated for 24 hrs in the presence of (S)-N-Hydroxy-4-(2-(1-methyl-6-phenyl-4H-benzo[f](1,2,4)-triazolo-[4,3-a],[1,4]diazepin-4-yl)acetamido)benzamide by checkerboard microdilution method; format: functional
Candida albicans [5] = test: Synergetic antifungal activity against Candida albicans 0304103 assessed as microbial growth inhibition incubated for 24 hrs in the presence of (S)-N-Hydroxy-2-(4-(2-(l-methyl-6-phenyl-4H-benzo[f](1,2,4)-triazolo-[4,3-a][1,4]diazepin 4-yl)acetamido)phenyl)acetamide by checkerboard microdilution method; format: functional
Candida albicans [6] = test: Synergetic antifungal activity against Candida albicans 0304103 assessed as microbial growth inhibition incubated for 24 hrs in the presence of (S,E)-N-Hydroxy-3-(4-(2-(l-methyl-6-phenyl-4H-benzo[f][1,2,4]-triazolo[4,3-a][1,4]diazepin-4-y1)acetamido)phenyl)acrylamide by checkerboard microdilution method; format: functional
Candida albicans [7] = test: Synergetic antifungal activity against Candida albicans 0304103 assessed as microbial growth inhibition incubated for 24 hrs in the presence of (S)-N-Hydroxy-4-(2-(1-methyl-6-(p-toly1)-4H-benzo[f](1,2,4)-triazolo-(4,3-a][1,4]diazepin-4-yl)acetamido)benzamide by checkerboard microdilution method; format: functional
Candida albicans [8] = test: Synergetic antifungal activity against Candida albicans 0304103 assessed as microbial growth inhibition incubated for 24 hrs in the presence of (S)-N-Hydroxy-4-((2-(1-methyl-6-(p-toly1)-4H-benzo[f](1,2,4)-triazolo-(4,3-a][1,4]diazepin-4-y1)acetamido)methyl)benzamide by checkerboard microdilution method; format: functional
Candida albicans [9] = test: Synergetic antifungal activity against Candida albicans 0304103 assessed as microbial growth inhibition incubated for 24 hrs in the presence of (S)-N-Hydroxy-2-(4-(2-(1-methyl-6-(p-toly1)-4H-benzo[f](1,2,4)-triazolo[4,3-a][1,4]diazepin-4-yl)acetamido)phenyl)acetamideby checkerboard microdilution method; format: functional
Candida albicans [10] = test: Synergetic antifungal activity against Candida albicans 0304103 assessed as microbial growth inhibition incubated for 24 hrs in the presence of (S)-2-(6-(4-Chlorophenyl)-1-methyl-4H-benzo[f][1,2,4]triazolo-14,3-a)(1,4)diazepin-4-yl)-N-(4-(2-(hydroxyamino)-2-oxoethyl)-phenyl)acetamide by checkerboard microdilution method; format: functional
Candida albicans [11] = test: Synergetic antifungal activity against Candida albicans 0304103 assessed as microbial growth inhibition incubated for 24 hrs in the presence of (S,E)-3-(4-(2-(6-(4-Chlorophenyl)-1-methy1-4H-benzo[f][1,2,4]-triazolo(4,3-a)[1,4]diazepin-4-yl)acetamido)phenyl)-N-hydroxyacrylamide by checkerboard microdilution method; format: functional
Candida albicans [12] = test: Synergetic antifungal activity against Candida albicans 0304103 assessed as microbial growth inhibition incubated for 24 hrs in the presence of (S)-2-(8-Chloro-6-(2-chlorophenyl)-1-methyl-4H-benzo[f][1,2,4]-triazolo(4,3-a][1,4]diazepin-4-y1)-N-(4-(2-(hydroxyamino)-2-oxoethyl)-phenyl)acetamide by checkerboard microdilution method; format: functional
Candida albicans [13] = test: Synergetic antifungal activity against Candida albicans 0304103 assessed as microbial growth inhibition incubated for 24 hrs in the presence of (S,E)-3-(4-(2-(8-Chloro-6-(2-chlorophenyl)-1-methyl-4H-benzo-[f][1,2,4]triazolo[4,3-a](1,4)diazepin-4-yl)acetamido)pheny1)-N-hydroxy-acrylamide by checkerboard microdilution method; format: functional
Candida albicans [14] = test: Synergetic antifungal activity against Candida albicans 0304103 assessed as microbial growth inhibition incubated for 24 hrs in the presence of (S)-4-(2-(6-(4-Chlorophenyl)-1-methyl-7,8,9,10-tetrahydro-4Hbenzo-[4,5]thieno(3,2-f)(1,2,4)triazolo(4,3-a)[1,4]diazepin-4-yl)-acetamido)-N-hydroxybenzamide by checkerboard microdilution method; format: functional
Candida albicans [15] = test: (§1) Synergetic antifungal activity against Candida albicans 0304103 assessed as microbial growth inhibition incubated for 24 hrs in the presence of (S)-4-((2-(6-(4-Chlorophenyl)-1-methyl-7,8,9,10-tetrahydro-4H-benzo-(4,5)thieno[3,2-f][1,2,4]triazolo(4,3-a)(1,4)diazepin-4-yl)-acetamido)-methyl)-N-hydroxybenzamide by checkerboard microdilution method; format: functional
Candida albicans [16] = test: Synergetic antifungal activity against Candida albicans 0304103 assessed as microbial growth inhibition incubated for 24 hrs in the presence of (S)-2-(6-(4-Chlorophenyl)-1-methyl-7,8,9,10-tetrahydro-4H-benzo-(4,5)thieno[3,2-f][1,2,4]triazolo(4,3-a)(1,4)diazepin-4-yl)-N-(4-(2-(hydroxyamino)-2-oxoethyl)phenyl)acetamide by checkerboard microdilution method; format: functional
Candida albicans [17] = test: Synergetic antifungal activity against Candida albicans 0304103 assessed as microbial growth inhibition incubated for 24 hrs in the presence of (S,E)-3-(4-(2-(6-(4-Chlorophenyl)-1-methyl-7,8,9,10-tetrahydro-4H-benzo-(4,5]thieno(3,2-f)(1,2,4)triazolo(4,3-a)(1,4]diazepin-4-yl)acetamido)pheny1)N-hydroxyacrylamide by checkerboard microdilution method; format: functional
Candida albicans [18] = test: Synergetic antifungal activity against Candida albicans 0304103 assessed as microbial growth inhibition incubated for 24 hrs in the presence of SAHA by checkerboard microdilution method; format: functional
Candida albicans [19] = test: Synergetic antifungal activity against Candida albicans 0304103 assessed as microbial growth inhibition incubated for 24 hrs in the presence of (+)-JQ1 by checkerboard microdilution method; format: functional
[Candida] auris [20] = Antifungal activity against Candida auris 0029 assessed as microbial growth inhibition; format: functional; settings: Candidozyma auris
[Candida] auris [21] = Antifungal activity against Candida auris 0030 assessed as microbial growth inhibition; format: functional; settings: Candidozyma auris
Candida albicans [22] = test: Antifungal activity against Candida albicans 9172 assessed as microbial growth inhibition; format: functional
Candida albicans [23] = test: Antifungal activity against Candida albicans 9884 assessed as microbial growth inhibition; format: functional
[Candida] auris [24] = as §1, with “auris 0030” for “albicans 0304103”; format: functional; settings: Candidozyma auris
Candida albicans [25] = test: as §1, with “9172” for “0304103”; format: functional
Candida albicans [26] = test: as §1, with “10061” for “0304103”; format: functional
Candida albicans [27] = test: as §1, with “9884” for “0304103”; format: functional
Cryptococcus neoformans [28] = test: as §1, with “Cryptococcus neoformans 011405” for “Candida albicans 0304103”; format: functional
Candida albicans [29] = test: Antibiofilm activity against FLC-resistant Candida albicans 0304103 assessed as inhibition of biofilm formation at 64 ug/mL incubated for 24 hrs by XTT reduction assay; format: functional, organism-based; settings: dose 64.0 µg/ml
Candida albicans [30] = test: Downregulation of CDR1 expression in Candida albicans 0304103 at 32 ug/mL incubated for 24 hrs by RT q-PCR analysis; format: functional; settings: dose 32.0 µg/ml
Candida albicans [31] = test: Downregulation of CDR2 expression in Candida albicans 0304103 at 32 ug/mL incubated for 24 hrs by RT q-PCR analysis; format: functional; settings: dose 32.0 µg/ml
Candida albicans [32] = test: Downregulation of MDR1 expression in Candida albicans 0304103 at 32 ug/mL incubated for 24 hrs by RT q-PCR analysis; format: functional; settings: dose 32.0 µg/ml
Candida albicans [33] = test: Downregulation of GCA1 expression in Candida albicans 0304103 at 32 ug/mL incubated for 24 hrs by RT q-PCR analysis; format: functional; settings: dose 32.0 µg/ml
Candida albicans [34] = test: Downregulation of ADH5 expression in Candida albicans 0304103 at 32 ug/mL incubated for 24 hrs by RT q-PCR analysis; format: functional; settings: dose 32.0 µg/ml

OC(Cn1cncn1)(Cn1cncn1)c1ccc(F)cc1F [FLUCONAZOLE]
MIC80 (Nakaseomyces glabratus): 64 µg/mL (≈ 209 µM)
MIC80 (Candida albicans [1]): 2 µg/mL
MIC80 (Cryptococcus neoformans [2]): 1 µg/mL (≈ 3.27 µM)
MIC80 (Candida albicans [3]): > 64 µg/mL
MIC80 (Candida albicans [4]): 2 µg/mL
MIC80 (Candida albicans [5]): 4 µg/mL
MIC80 (Candida albicans [6]): 2 µg/mL
MIC80 (Candida albicans [7]): 1 µg/mL
MIC80 (Candida albicans [8]): 1 µg/mL
MIC80 (Candida albicans [9]): 1 µg/mL
MIC80 (Candida albicans [10]): 16 µg/mL
MIC80 (Candida albicans [11]): 0.25 µg/mL
MIC80 (Candida albicans [12]): 1 µg/mL
MIC80 (Candida albicans [13]): 0.5 µg/mL
MIC80 (Candida albicans [14]): 1 µg/mL
MIC80 (Candida albicans [15]): 2 µg/mL
MIC80 (Candida albicans [16]): 0.5 µg/mL
MIC80 (Candida albicans [17]): 0.25 µg/mL
MIC80 (Candida albicans [18]): 4 µg/mL
MIC80 (Candida albicans [19]): > 64 µg/mL
MIC80 ([Candida] auris [20]): > 64 µg/mL
MIC80 ([Candida] auris [21]): > 64 µg/mL
MIC80 (Candida albicans [22]): > 64 µg/mL
MIC80 (Candida albicans [23]): 2 µg/mL (≈ 6.53 µM)
MIC80 ([Candida] auris [24]): 64 µg/mL
MIC80 (Candida albicans [25]): 0.5 µg/mL
MIC80 (Candida albicans [26]): 1 µg/mL
MIC80 (Candida albicans [27]): 0.25 µg/mL
MIC80 (Cryptococcus neoformans [28]): 2 µg/mL
Activity (Candida albicans [29]): inactive
Activity (Candida albicans [30]): inactive
Activity (Candida albicans [31]): inactive
Activity (Candida albicans [32]): inactive
Activity (Candida albicans [33]): Active
Activity (Candida albicans [34]): inactive
